Test results reported in patent US20140023611A1 (priority 2010, published 2014).

Tests used:
[1] = Stability of compounds in simulated intestinal fluid (SIF); type: in vitro ADME; conditions: simulated intestinal fluid (3 mg/mL pancreatin), incubation time 6 hr, relative to t=0
Protocol: (§1) Test compounds were incubated at […] in simulated gastric fluid (SGF; standard USP solution with 3 mg/mL pepsin) or simulated intestinal fluid (SIF; standard USP solution with 3 mg/mL pancreatin) for 3 hr or 6 hr. HPLC-UV or HPLC-MS were used to determine test compound levels using peak area %. Results (Table 14) were reported as the percentage of test compound remaining after incubation in a given condition relative to test compound present at t=0 in the same condition.

[2] = Determination of compound Cmax and AUC after oral gavage (plasma LC-MS/MS); type: in vivo, Sprague-Dawley rats; conditions: Sprague-Dawley, rat, plasma, po, Structure (I) examples, Table 15, actual oral dose 3-15 mg/kg, plasma 0.5-4 h
Summary of the method: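 Plasma exposure measured by LC-MS/MS after acetonitrile precipitation with internal standard, quantified against a standard curve made in plasma. Compound given orally by gavage to Sprague-Dawley rats at nominal 2.5 or 10 mg/kg, with K2EDTA plasma sampled at 0.5, 1, 2 and 4 h.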

[3] = target: T1, rat NaP2b (SLC34A2) (Rattus norvegicus, UniProt Q9JJ09); assay: Inhibition of NaP2b-mediated Pi (33P) uptake in transfected HEK293 cells, rat NaP2b; type: cell-based; conditions: 33P Pi uptake, 0.1 mM phosphate, value given as pIC50 range
T1 construct: host or cells: HEK293
T1 sequence (Q9JJ09 1-695): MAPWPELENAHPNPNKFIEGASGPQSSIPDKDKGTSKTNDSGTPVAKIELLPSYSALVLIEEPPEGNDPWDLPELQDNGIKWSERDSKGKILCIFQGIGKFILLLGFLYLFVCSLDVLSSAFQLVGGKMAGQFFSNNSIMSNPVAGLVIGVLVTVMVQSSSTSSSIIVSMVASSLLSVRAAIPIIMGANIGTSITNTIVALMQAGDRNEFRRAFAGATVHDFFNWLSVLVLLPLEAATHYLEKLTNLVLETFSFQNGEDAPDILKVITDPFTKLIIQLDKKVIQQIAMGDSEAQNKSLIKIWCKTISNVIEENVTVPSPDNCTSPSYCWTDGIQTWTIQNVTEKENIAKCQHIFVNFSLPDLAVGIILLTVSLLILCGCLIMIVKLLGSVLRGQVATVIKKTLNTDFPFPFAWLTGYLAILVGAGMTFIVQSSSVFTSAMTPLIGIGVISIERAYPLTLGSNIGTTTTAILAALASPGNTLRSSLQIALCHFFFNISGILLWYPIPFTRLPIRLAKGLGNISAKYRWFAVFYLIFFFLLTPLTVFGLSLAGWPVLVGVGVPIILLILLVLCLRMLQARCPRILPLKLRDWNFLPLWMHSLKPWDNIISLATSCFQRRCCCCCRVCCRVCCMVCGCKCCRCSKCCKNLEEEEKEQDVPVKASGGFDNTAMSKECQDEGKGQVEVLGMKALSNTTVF
Summary of the method: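 The cells transiently expressed NaP2b after Lipofectamine transfection. Each compound was run in duplicate over twelve concentrations, 0.1 nM–30 uM.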

[4] = Stability of compounds in simulated gastric fluid (SGF); type: in vitro ADME; conditions: simulated gastric fluid (3 mg/mL pepsin), incubation time 6 hr, relative to t=0
Protocol: as §1

Row | SMILES | % remaining, SIF [1] | AUC [2] | Cmax [2] | IC50 [3] | % remaining, SGF [4]
1 | CCN(CC)c1ccc(NC(=O)c2cccc(CSCCOCCOCCOCCOCCC(=O)NCCOCCOCCOCCOCCOCCOCCOCCOC)c2)c(-c2cc(C(=O)NCc3cccc(C(F)(F)F)c3)ccn2)c1 [Example 165, 2-(5-(diethylamino)-2-(3-(27-oxo-2,5,8,11,14,17,20,23,30,33,36,39-dodecaoxa-42-thia-26-azatritetracontan-43-yl)benzamido)phenyl)-N-(3-(trifluoromethyl)benzyl)isonicotinamide] | >80% | < 30 ng·h/mL | < 10 ng/mL | 1 to 7.94 µM | >80%
2 | CN(CCN1CCC[C@H]1C(=O)N(C)CCOCCOCCOCCC(=O)O)C(=O)c1cccc(C(=O)Nc2ccc(N3CCCCC3)cc2-c2cc(C(=O)N[C@H]3CCCc4ccccc43)ccn2)c1 [Example 191, 2-Methyl-1-((S)-1-(2-(N-methyl-3-((4-(piperidin-1-yl)-2-(4-(((S)-1,2,3,4-tetrahydronaphthalen-1-yl)carbamoyl)pyridin-2-yl)phenyl)carbamoyl)benzamido)ethyl)pyrrolidin-2-yl)-1-oxo-5,8,11-trioxa-2-azatetradecan-14-oic acid] | >80% | < 10 ng·h/mL | < 10 ng/mL | 10 to 31.6 µM | >80%
3 | CN(CCN1CCC[C@H]1C(=O)NCCOCCOCCOCCC(=O)O)C(=O)c1cccc(C(=O)Nc2ccc(N3CCCCC3)cc2-c2cc(C(=O)N[C@H]3CCCc4ccccc43)ccn2)c1 [Example 193, 1-((S)-1-(2-(N-methyl-3-((4-(piperidin-1-yl)-2-(4-(((S)-1,2,3,4-tetrahydronaphthalen-1-yl)carbamoyl)pyridin-2-yl)phenyl)carbamoyl)benzamido)ethyl)pyrrolidin-2-yl)-1-oxo-5,8,11-trioxa-2-azatetradecan-14-oic acid] | >80% | < 30 ng·h/mL | < 10 ng/mL | 10 to 31.6 µM | >80%
4 | COCCN(C)C(=O)N1CCN(CCN(C)Cc2cccc(C(=O)Nc3ccc(N4CCCCC4)cc3-c3cc(C(=O)NCc4cccc(C(F)(F)F)c4)ccn3)c2)CC1 [Example 209, N-(2-methoxyethyl)-N-methyl-4-(2-(methyl(3-(4-(piperidin-1-yl)-2-(4-(3-(trifluoromethyl)benzylcarbamoyl)pyridin-2-yl)phenylcarbamoyl)benzyl)amino)ethyl)piperazine-1-carboxamide] | 60-80% | < 30 ng·h/mL | < 30 ng/mL | 1 to 7.94 µM | >80%
5 | COCCN(C)C(=O)N1CCN(CCN(C)Cc2cccc(C(=O)Nc3ccc(N4CCCCC4)cc3-c3cc(C(=O)NCc4cccc(C(F)(F)F)c4)ccn3)n2)CC1 [Example 210, N-(2-methoxyethyl)-N-methyl-4-(2-(methyl((6-(4-(piperidin-1-yl)-2-(4-(3-(trifluoromethyl)benzylcarbamoyl)pyridin-2-yl)phenylcarbamoyl)pyridin-2-yl)methyl)amino)ethyl)piperazine-1-carboxamide] | >80% | < 30 ng·h/mL | < 10 ng/mL | 10 to 31.6 µM | >80%
6 | CN(CCOCCOCCOCCC(=O)O)C(=O)c1cccc(C(=O)Nc2ccc(Cl)cc2-c2cc(C(=O)NCc3cccc(C(F)(F)F)c3)ccn2)c1 [Example 238, 3-{2-[2-(2-{1-[3-({4-chloro-2-[4-({[3-(trifluoromethyl)phenyl]methyl}carbamoyl)pyridin-2-yl]phenyl}carbamoyl)phenyl]-N-methylformamido}ethoxy)ethoxy]ethoxy}propanoic acid] | >80% | < 10 ng·h/mL | < 10 ng/mL | 10 to 31.6 µM | >80%
7 | CN(CCN1CCCC[C@H]1C(=O)N(C)CCOCCOCCOCCC(=O)OC(C)(C)C)C(=O)c1cccc(C(=O)Nc2ccc(N3CCCCC3)cc2-c2cc(C(=O)N[C@H]3CCCc4ccccc43)ccn2)c1 [Example 240, tert-butyl 2-methyl-1-((S)-1-(2-(N-methyl-3-(4-(piperidin-1-yl)-2-(4-((S)-1,2,3,4-tetrahydronaphthalen-1-ylcarbamoyl)pyridin-2-yl)phenylcarbamoyl)benzamido)ethyl)piperidin-2-yl)-1-oxo-5,8,11-trioxa-2-azatetradecan-14-oate] | >80% | < 10 ng·h/mL | < 10 ng/mL | 1 to 7.94 µM | >80%
8 | CN(CC(=O)N1CCN(CCOCCO)CC1)C(=O)c1cccc(C(=O)Nc2ccc(N3CCCCC3)cc2-c2cc(C(=O)N[C@H]3CCCc4ccccc43)ccn2)c1 [Example 246, (S)—N1-(2-(4-(2-(2-hydroxyethoxy)ethyl)piperazin-1-yl)-2-oxoethyl)-N1-methyl-N3-(4-(piperidin-1-yl)-2-(4-(1,2,3,4-tetrahydronaphthalen-1-ylcarbamoyl)pyridin-2-yl)phenyl)isophthalamide] | >80% | < 10 ng·h/mL | < 10 ng/mL | 1 to 7.94 µM | >80%
9 | CN(CCOCCOCCOCCC(=O)O)C(=O)c1cccc(C(=O)Nc2ccc(N3CCCCC3)cc2-c2cc(C(=O)NCc3cccc(C(F)(F)F)c3)ccn2)c1 [Example 248, 3-[2-(2-{2-[N-methyl-1-(3-{[4-(piperidin-1-yl)-2-[4-({[3-(trifluoromethyl)phenyl]methyl}carbamoyl)pyridin-2-yl]phenyl}carbamoyl}phenyl)formamido]ethoxy}ethoxy)ethoxy]propanoic acid] | >80% | < 10 ng·h/mL | < 10 ng/mL | 10 to 31.6 µM | >80%
10 | CN(CCOCCOCCOCCC(=O)N1CCN(CCOCCO)CC1)C(=O)c1cccc(C(=O)Nc2ccc(N3CCCCC3)cc2-c2cc(C(=O)N[C@H]3CCCc4ccccc43)ccn2)c1 [Example 250, 1-N-(2-{2-[2-(3-{4-[2-(2-hydroxyethoxy)ethyl]piperazin-1-yl}-3-oxopropoxy)ethoxy]ethoxy}ethyl)-1-N-methyl-3-N-[4-(piperidin-1-yl)-2-(4-{[(1S)-1,2,3,4-tetrahydronaphthalen-1-yl]carbamoyl}pyridin-2-yl)phenyl]benzene-1,3-dicarboxamide] | >80% | < 10 ng·h/mL | < 10 ng/mL | 1 to 7.94 µM | >80%
11 | COCCOCCOCCOCCOCCOCCOCCN(C)C(=O)[C@H]1CCCN(C(=O)c2cccc(C(=O)Nc3ccc(N4CCCCC4)cc3-c3cc(C(=O)N[C@H]4CCCc5ccccc54)ccn3)c2)C1 [Example 255, 2-(2-(3-((S)-3-(2,5,8,11,14,17,20-heptaoxadocosan-22-yl(methyl)carbamoyl)piperidine-1-carbonyl)benzamido)-5-(piperidin-1-yl)phenyl)-N—((S)-1,2,3,4-tetrahydronaphthalen-1-yl)isonicotinamide] | >80% | < 10 ng·h/mL | < 10 ng/mL | 1 to 7.94 µM | >80%
12 | COCCOCCOCCOCCOCCOCCOCCNC(=O)[C@H]1CCCN(C(=O)c2cccc(C(=O)Nc3ccc(N4CCCCC4)cc3-c3cc(C(=O)N[C@H]4CCCc5ccccc54)ccn3)c2)C1 [Example 256, 2-(2-(3-((S)-3-(2,5,8,11,14,17,20-heptaoxadocosan-22-ylcarbamoyl)piperidine-1-carbonyl)benzamido)-5-(piperidin-1-yl)phenyl)-N—((S)-1,2,3,4-tetrahydronaphthalen-1-yl)isonicotinamide] | >80% | < 10 ng·h/mL | < 10 ng/mL | 1 to 7.94 µM | >80%
